From patent publication US8389721B2, “Solubilized topoisomerase poisons” (Rutgers, The State University of New Jersey, priority 2001, dated 2013)
Where two headings read alike, the source gives them in different places.

Columns and labels:
[1] = tested on: CPT-K5; experiment: MTT-microtiter plate tetrazolinium cytotoxicity assay (Test B), camptothecin-resistant variant; assay type: cell-based; conditions: Homo sapiens
Procedure: (§1) Test B. Inhibition of Cell Growth: MTT-Microtiter Plate Tetrazolinium Cytotoxicity Assay (RPMI 8402, CPT-K5, U937, U937/CR Cells)
(§2) The cytotoxicity is determined using the MTT-microtiter plate tetrazolinium cytotoxicity assay (MTA), see Chen A. Y. et al. Cancer Res. 1993, 53, 1332; Mosmann, T. J., J. Immunol. Methods 1983, 65, 55; and Carmichael, J. et al. Cancer Res. 1987, 47, 936. The human lymphoblast RPMI 8402 and its camptothecin-resistant variant cell line, CPT-K5 were provided by Dr. Toshiwo Andoh (Anchi Cancer Research Institute, Nagoya, Japan), see Andoh, T.; Okada, K, Adv. in Pharmacology 1994, 29B, 93. Human U-937 myeloid leukemia cells and U-937/CR cells were described by Rubin et al., J. Biol. Chem., 1994, 269, 2433-2439. The cytotoxicity assay is performed by using 96-well microtiter plates using 2000 cells/well, in […] of growth medium. Cells are grown in suspension at 37° C. in 5% CO2 and maintained by regular passage in RPMI medium supplemented with 10% heat-inactivated fetal bovine serum, L-glutamine (2 mM), penicillin (100 U/mL), and streptomycin (0.1 mg/mL). For determination of IC50, cells are exposed continuously for 3-4 days to varying concentrations of drug, and MTT assays were performed at the end of the fourth day. […] All assays are performed at least twice in 6 replicate wells. All assays are performed under the direction of Dr. L. F. Liu, Department of Pharmacology, The University of Medicine and Dentistry of New Jersey, Robert Wood Johnson Medical School, Piscataway, N.J.

[2] = tested on: RPMI 8402; experiment: MTT-microtiter plate tetrazolinium cytotoxicity assay (Test B); assay type: cell-based, human
Procedure: as §1, §2

[3] = camptothecin-resistant variant cell line CPT-K5, continuous exposure 3-4 days, MTT, read-out: CPT-K5 IC50 values
[4] = human lymphoblast RPMI 8402 cells, continuous exposure 3-4 days, MTT, read-out: RPMI 8402 [μM] IC50 values

SMILES | melting point | also measured
COc1cc2c(=O)n(CCCN(C)C)c3c4cc5c(cc4ncc3c2cc1OC)OCO5 [Example 11, 8,9-Dimethoxy-2,3-methylenedioxy-5-[3-(N,N-dimethylamino)propyl]-5H-dibenzo[c,h]1,6-naphthyridin-6-one] | 262 to 264 °C (dec.) | –
CC[C@@]1(O)C(=O)OCc2c1cc1n(c2=O)Cc2cc3c(CN(C)C)c(O)ccc3nc2-1 [Topotecan] | – | IC50 [1, 3]: > 10000 nM; IC50 [2, 4]: 0.005 µM
COc1cc2c(=O)n(CCO)c3c4cc5c(cc4ncc3c2cc1OC)OCO5 [Example 13, 8,9-Dimethoxy-2,3-methylenedioxy-5-[2-(hydroxy)ethyl]-5H-dibenzo[c,h]1,6-naphthyridin-6-one] | 285 to 286 °C | –
COc1cc2c(=O)n(CCN3CCN(C)CC3)c3c4cc5c(cc4ncc3c2cc1OC)OCO5 [Example 10, 8,9-Dimethoxy-2,3-methylenedioxy-5-[2-(4-methylpiperazin-1-yl)ethyl]-5H-dibenzo[c,h]1,6-naphthyridin-6-one] | 244 to 246 °C | –
CCc1c2c(nc3ccc(OC(=O)N4CCC(N5CCCCC5)CC4)cc13)-c1cc3c(c(=O)n1C2)COC(=O)[C@]3(O)CC [Irinotecan] | – | IC50 [1, 3]: > 100000 nM; IC50 [2, 4]: 0.57 µM
COc1cc2c(=O)n(C(C)CN(C)C)c3c4cc5c(cc4ncc3c2cc1OC)OCO5 (stereo not drawn) [Example 8, 8,9-Dimethoxy-2,3-methylenedioxy-5-[2-(N,N-dimethylamino)-1-methylethyl]-5H-dibenzo[c,h]1,6-naphthyridin-6-one] | 186 to 187 °C | –
COc1cc2c(=O)n(CCN3CCCC3)c3c4cc5c(cc4nnc3c2cc1OC)OCO5 [Example 5, 2,3-Dimethoxy-8,9-methylenedioxy-11-[2-(pyrrolidin-1-yl)ethyl]-11H-5,6,11-triaza-chrysen-12-one] | 229 °C | –
COc1cc2c(=O)n(CC3CCCO3)c3c4cc5c(cc4ncc3c2cc1OC)OCO5 (stereo not drawn) [Example 12, 8,9-Dimethoxy-2,3-methylenedioxy-5-(2-tetrahydrofuranyl)methyl-5H-dibenzo[c,h]1,6-naphthyridin-6-one] | 270 to 273 °C | –
CCN(CC)CCn1c(=O)c2cc(OC)c(OC)cc2c2cnc3cc4c(cc3c21)OCO4 [Example 19, 8,9-Dimethoxy-2,3-methylenedioxy-5-[2-(N,N-diethylamino)ethyl]-5H-dibenzo[c,h]1,6-naphthyridin-6-one] | 221 to 223 °C (dec.) | –
COc1cc2c(=O)n(CCN(C)C)c3c4cc5c(cc4nnc3c2cc1OC)OCO5 [Compound 5, 11,12-dihydro-2,3-dimethoxy-8,9-methylenedioxy-11-[2-(dimethylamino)ethyl]-5,6,11-triazachrysen-12-one] | – | IC50 [1, 3]: 1200 nM; IC50 [2, 4]: 0.003 µM
COc1cc2c(cc1OC)-c1cnc3cc4c(cc3c1N(C(C)CN(C)C)C2)OCO4 (stereo not drawn) [Example 18, 8,9-Dimethoxy-2,3-methylenedioxy-5-[2-(N,N-dimethylamino)-1-methylethyl]-5,6-dihydro-dibenzo[c,h]1,6-naphthyridine] | 153 to 154 °C | –
COc1cc2c(=O)n(CCN3CCCCC3)c3c4cc5c(cc4nnc3c2cc1OC)OCO5 [Example 6, 2,3-Dimethoxy-8,9-methylenedioxy-11-[2-(piperidin-1-yl)ethyl]-11H-5,6,11-triaza-chrysen-12-one] | 294 to 295 °C | –
COc1cc2c(=O)n(CC3CCCO3)c3c4cc5c(cc4nnc3c2cc1OC)OCO5 (stereo not drawn) [Example 4, 2,3-Dimethoxy-8,9-methylenedioxy-11-(2-tetrahydrofuranyl)methyl-11H-5,6,11-triazachrysen-12-one] | 300 to 303 °C (dec.) | –
COc1cc2c(cc1OC)-c1cnc3cc4c(cc3c1N(CCN(C)C)C2)OCO4 [Example 17, 8,9-Dimethoxy-2,3-methylenedioxy-5-[2-(N,N-dimethylamino)ethyl]-5,6-dihydro-dibenzo[c,h]1,6-naphthyridine] | 271 to 273 °C (dec.) | –
COc1cc2c(=O)n(CCN3CCCC3)c3c4cc5c(cc4ncc3c2cc1OC)OCO5 [Example 9, 8,9-Dimethoxy-2,3-methylenedioxy-5-[2-(pyrrolidin-1-yl)ethyl]-5H-dibenzo[c,h]1,6-naphthyridin-6-one] | 255 to 257 °C (dec.) | –
COc1cc2c(=O)n(CCOCCO)c3c4cc5c(cc4ncc3c2cc1OC)OCO5 [Example 14, 8,9-Dimethoxy-2,3-methylenedioxy-5-[2-(2-hydroxyethoxy)ethyl]-5H-dibenzo[c,h]1,6-naphthyridin-6-one] | 235 °C | –
CC[C@@]1(O)C(=O)OCc2c1cc1n(c2=O)Cc2cc3ccccc3nc2-1 [Camptothecin] | – | IC50 ([1]; CPT-K5, read-out: CPT-K5 IC50 values): 4500 nM; IC50 ([2]; Homo sapiens, RPMI 8402, read-out: RPMI 8402 [μM] IC50 values): 0.002 µM
